# Laboratory results taken from US20100074846A1, “Campylobacter Vaccines and Methods of use” (priority 2006, published 2010).
# Test system: Campylobacter species pig isolates
# Test: nalidixic acid and cephalothin antibiotic sensitivity and resistance testing of pig isolates
# Format: cell-based, Campylobacter coli
SMILES,antibiotic sensitivity/resistance (pig isolate 1-Group B),antibiotic sensitivity/resistance (pig isolate 2-Group B),antibiotic sensitivity/resistance (pig isolate 3-Group A),antibiotic sensitivity/resistance (pig isolate 3-Group B),antibiotic sensitivity/resistance (pig isolate 4-Group A),antibiotic sensitivity/resistance (pig isolate 6-Group A),antibiotic sensitivity/resistance (pig isolate 7-Group A)
"CC(=O)OCC1=C(C(=O)O)N2C(=O)[C@@H](NC(=O)Cc3cccs3)[C@H]2SC1 [Cph, cephalothin]",S,R,R,R,S,R,R
"CCn1cc(C(=O)O)c(=O)c2ccc(C)nc21 [NA, nalidixic acid]",S,S,R,S,S,S,S
